By melting point is commonly meant the temperature of the solid-liquid transition.

Molecules are shown by their SMILES.

Consider 37 molecules from patent US8778966B2, “Quinolinone derivatives as PARP and tank inhibitors” (Janssen Pharmaceutica, NV, priority 2007, dated 2014).

One data set has as its target T1, TANK-2 enzyme (Homo sapiens, UniProt Q9H2K2).
T1 construct: made in house
T1 sequence (Q9H2K2 1-1166): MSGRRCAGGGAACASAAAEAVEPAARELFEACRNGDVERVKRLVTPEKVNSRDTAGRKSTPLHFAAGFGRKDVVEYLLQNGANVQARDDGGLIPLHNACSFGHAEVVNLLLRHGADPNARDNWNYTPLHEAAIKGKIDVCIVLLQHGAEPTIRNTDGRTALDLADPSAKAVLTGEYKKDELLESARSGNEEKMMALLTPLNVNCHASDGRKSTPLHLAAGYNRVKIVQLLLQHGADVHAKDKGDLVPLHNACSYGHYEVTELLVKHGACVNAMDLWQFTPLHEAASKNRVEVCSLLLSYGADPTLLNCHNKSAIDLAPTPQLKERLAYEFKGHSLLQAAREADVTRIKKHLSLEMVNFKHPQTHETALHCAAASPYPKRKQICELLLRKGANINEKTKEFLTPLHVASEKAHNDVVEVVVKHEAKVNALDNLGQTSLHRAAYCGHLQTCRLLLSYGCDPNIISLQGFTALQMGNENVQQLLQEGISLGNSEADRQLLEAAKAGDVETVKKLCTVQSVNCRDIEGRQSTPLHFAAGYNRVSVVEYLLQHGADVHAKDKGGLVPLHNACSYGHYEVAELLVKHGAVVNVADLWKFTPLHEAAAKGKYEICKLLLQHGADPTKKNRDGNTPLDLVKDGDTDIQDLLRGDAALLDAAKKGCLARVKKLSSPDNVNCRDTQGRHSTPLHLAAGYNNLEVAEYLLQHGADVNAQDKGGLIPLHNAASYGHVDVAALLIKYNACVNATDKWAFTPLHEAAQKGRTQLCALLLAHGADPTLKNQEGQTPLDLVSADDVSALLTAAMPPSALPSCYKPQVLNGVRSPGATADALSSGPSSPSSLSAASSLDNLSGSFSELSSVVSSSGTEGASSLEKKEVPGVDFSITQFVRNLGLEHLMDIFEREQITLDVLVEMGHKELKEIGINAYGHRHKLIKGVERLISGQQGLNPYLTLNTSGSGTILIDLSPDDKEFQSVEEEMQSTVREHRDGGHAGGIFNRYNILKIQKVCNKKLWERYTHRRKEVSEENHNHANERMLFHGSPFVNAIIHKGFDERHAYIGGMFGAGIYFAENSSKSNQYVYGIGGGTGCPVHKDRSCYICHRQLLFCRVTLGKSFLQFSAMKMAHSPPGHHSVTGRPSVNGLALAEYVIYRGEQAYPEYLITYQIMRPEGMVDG
The data set can be described thus: In vitro Scintillation Proximity Assay (SPA) for TANK-2 inhibitory activity. Conditions: read-out: in vitro SPA assay TANK-2 pIC50 (converted). The format is biochemical. The method, boiled down:
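Results are pIC50 values, with IC50 interpolated linearly around 50% of blank-subtracted control cpm. They come from a scintillation proximity read of TANK-2 (8 μg/ml) self-modification with [3H]-NAD+/NAD, incubated 120 min at room temperature in pH 7.4 Tris buffer containing MgCl2 and DTT. Compounds were first screened at 10^−5 M.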
(In general: Scintillation proximity formats need no separation of bound from free tracer.)

Another data set deals with PC3 cells. The data set can be described thus: EB1 Comet (microtubule disruption) assay. Type of data set: cell-based, human. Conditions: 1 hour treatment; for minimal effective concentration: Homo sapiens, PC-3, 1 h, read-out: EB1 pLAC (converted). Put shortly: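 Readout is loss of Eb1 plus-end foci, scored by immunofluorescence microscopy, in PC3 cells after 1 h compound treatment at 37 °C with 0.6% final DMSO. LAC is defined as the lowest concentration leaving at least 50% of cells without Eb1 foci.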

For `C#Cc1cccc(CC(C)(C#N)c2ccc3cc(CC)c(=O)[nH]c3c2)n1` (stereo not drawn) [Compound 211], the melting point came out at 140 °C. Moreover, the IC50 on TANK-2 enzyme is 0.398 µM. Also, the minimal effective concentration with PC3 cells was 0.1 µM.
For `CCc1cc2ccc(C(F)(C#N)Cc3ccccc3)cc2[nH]c1=O` (stereo not drawn) [Compound 187], the melting point amounted to 176 °C. Also, the IC50 on TANK-2 enzyme is 0.316 µM. In the data set with PC3 cells, the minimal effective concentration is 5.62 µM.
Turning to `CC(=O)c1cc2ccc(C(C)(C#N)Cc3ccccc3)cc2[nH]c1=O` (stereo not drawn) [Compound 39], the melting point was found to be 194 °C. Moreover, the IC50 at TANK-2 enzyme was 0.316 µM.
As for `Cc1cc2ccc(C(C)(C#N)Cc3cccc(C#N)c3)cc2[nH]c1=O` (stereo not drawn) [Compound 34], the melting point came to 260 °C. Besides, on TANK-2 enzyme, the IC50 is 0.0316 µM. In addition, the minimal effective concentration with PC3 cells was 0.316 µM.
The matching figures for `C=Cc1cccc(CC(C)(C#N)c2ccc3cc(CC)c(=O)[nH]c3c2)c1` (stereo not drawn) [Compound 172]: 130 °C, 0.794 µM and 0.1 µM.
The molecule `C#Cc1cccc(C[C@](C)(C#N)c2ccc3cc(CC)c(=O)[nH]c3c2)c1` [Compound 2] returned a melting point of 125 °C. For the same molecule, at TANK-2 enzyme, the IC50 was 0.398 µM.
For the molecule `CCc1cc2ccc(C(C)(C#N)Cc3cccc(CCC#N)c3)cc2[nH]c1=O` (stereo not drawn) [Compound 169], the melting point turned out to be 149 °C. Also, at TANK-2 enzyme, the IC50 was 0.398 µM. The “EB1 pLAC” value in the data set on PC3 cells came out at 6.
In the case of `CCc1cc2ccc([C@](C)(C#N)[C@@H](C)c3ccccc3)cc2[nH]c1=O` [Compound 199], the melting point worked out at 250 °C. The IC50 on TANK-2 enzyme is 1.26 µM.
For `CC(C)c1cc2ccc(C(C)(C#N)Cc3ccccc3)cc2[nH]c1=O` (stereo not drawn) [Compound 38] the same measures were 178 °C and 0.501 µM.
Take `CCc1cc2ccc(C(C)(C#N)Cc3cccc(I)n3)cc2[nH]c1=O` (stereo not drawn) [Compound 214]: the melting point is 131 °C. In addition, the IC50 at TANK-2 enzyme is 0.0501 µM. Moreover, the minimal effective concentration in the data set with PC3 cells is 0.1 µM.
For `CCc1cc2ccc(C(C)(C#N)Cc3cccc(C#CCO)c3)cc2[nH]c1=O` (stereo not drawn) [Compound 183] the same measures were 182 °C, 0.794 µM and under 0.0316 µM.
Regarding `Cc1cc2ccc([C@](C)(C#N)Cc3cccc(C#N)c3)cc2[nH]c1=O` [Compound 36], the melting point stood at 226 °C. Also, on TANK-2 enzyme, the IC50 is 0.2 µM. In addition, in the data set on PC3 cells, the minimal effective concentration was 0.316 µM.
In turn, `CCc1cc2ccc(C(C)(C#N)C(C)c3ccccc3)cc2[nH]c1=O` (stereo not drawn) [Compound 198] had a melting point of 198 °C. For the same molecule, at TANK-2 enzyme, the IC50 was 0.794 µM. Further, the minimal effective concentration with PC3 cells is 0.316 µM.
For the molecule `CCc1cc2ccc(C(C)(C#N)Cc3cccc(C)n3)cc2[nH]c1=O` (stereo not drawn) [Compound 343], the IC50 at TANK-2 enzyme is 0.398 µM. Besides, the minimal effective concentration in the data set with PC3 cells is 3.16 µM.
`COc1ccccc1-c1nc(CC(C)(C#N)c2ccc3cc(C)c(=O)[nH]c3c2)no1` (stereo not drawn) [Compound 33] came in with a melting point of 130 °C. For the same molecule, on TANK-2 enzyme, the IC50 was 0.158 µM.
In the case of `CCOC(=O)c1cccc(CC(C)(C#N)c2ccc3cc(CC)c(=O)[nH]c3c2)n1` (stereo not drawn) [Compound 215], the melting point was determined as 60 °C. Besides, the IC50 on TANK-2 enzyme was 2 µM. For the same molecule, the minimal effective concentration in the data set on PC3 cells was 0.316 µM.
On to `CCc1cc2ccc(C(C#N)(CC)Cc3ccccc3)cc2[nH]c1=O` (stereo not drawn) [Compound 32], for which the melting point amounted to 198 °C. Further, on TANK-2 enzyme, the IC50 was 0.0794 µM. Also, the minimal effective concentration with PC3 cells is 1 µM.
As for `CCc1cc2cc(F)c(C(C)(C#N)Cc3cccc(C#N)c3)cc2[nH]c1=O` (stereo not drawn) [Compound 175], the melting point was determined as 202 °C. Also, the IC50 on TANK-2 enzyme is 0.1 µM. In the data set with PC3 cells, the minimal effective concentration was 1 µM.
`CCc1cc2ccc(C(C)(C#N)Cc3cccc(C#N)n3)cc2[nH]c1=O` (single isomer, unassigned) [Compound 206] registered a melting point of 121 °C. In addition, on TANK-2 enzyme, the IC50 was 0.0501 µM.
The molecule `CCc1cc2ccc(C(C)(C#N)Cc3cccc(CN)n3)cc2[nH]c1=O` (stereo not drawn) [Compound 221] returned a melting point of 65 °C. Also, the IC50 at TANK-2 enzyme is 0.251 µM. In addition, the minimal effective concentration in the data set with PC3 cells was 3.16 µM.
`CCc1cc2ccc(C(C)(C#N)Cc3ncc(C)c(OC)c3C)cc2[nH]c1=O` (stereo not drawn) [Compound 311]: the IC50 on TANK-2 enzyme was 1.26 µM. For the same molecule, in the data set on PC3 cells, the minimal effective concentration was 3.16 µM.
In the case of `CCc1cc2ccc(C(C)(C#N)Cc3cccc(N(C)C)n3)cc2[nH]c1=O` (stereo not drawn) [Compound 213], the melting point came to 115 °C. Moreover, the IC50 on TANK-2 enzyme was 0.126 µM. In addition, the minimal effective concentration in the data set with PC3 cells was 0.316 µM.
On to `CCc1cc2ccc([C@@](C)(C#N)Cc3cccc(N(C)C)c3)cc2[nH]c1=O` (single isomer, unassigned) [Compound 258], for which, on TANK-2 enzyme, the IC50 was 0.501 µM. The minimal effective concentration with PC3 cells was 0.316 µM.
For the molecule `CCc1cc2ccc(C(C)(C#N)Cc3cccc(COC)n3)cc2[nH]c1=O` (stereo not drawn) [Compound 216], the melting point was determined as 153 °C. For the same molecule, the IC50 at TANK-2 enzyme was 1.26 µM. Further, the minimal effective concentration with PC3 cells is 1 µM.
For `CCc1c(C)c2ccc(C(C)(C#N)Cc3cccc(C#N)c3)cc2[nH]c1=O` (stereo not drawn) [Compound 181] the same measures were 204 °C, 0.158 µM and 0.316 µM.
With `CCc1c(Cl)c2ccc(C(C)(C#N)Cc3cccc(C#N)c3)cc2[nH]c1=O` (stereo not drawn) [Compound 293], the IC50 on TANK-2 enzyme is 1 µM. In the data set on PC3 cells, the minimal effective concentration is 1 µM.
The molecule `CCc1cc2ccc(C(C)(C#N)Cc3cccc(C#N)n3)cc2[nH]c1=O` (single isomer, unassigned) [Compound 207] displayed a melting point of 133 °C. Besides, on TANK-2 enzyme, the IC50 is 0.0316 µM. Further, the minimal effective concentration in the data set with PC3 cells is 0.1 µM.
`CCc1cc2ccc(C(C)(C#N)Cc3cnc(OC)nc3Cl)cc2[nH]c1=O` (stereo not drawn) [Compound 356]: the IC50 at TANK-2 enzyme was 0.0794 µM. The minimal effective concentration in the data set with PC3 cells was 0.1 µM.
`CCc1cc2ccc([C@](C)(C#N)[C@H](C)c3ccccc3)cc2[nH]c1=O` [Compound 200]: the IC50 on TANK-2 enzyme was 1.26 µM. Besides, in the data set with PC3 cells, the minimal effective concentration was 0.316 µM.
In the case of `C#Cc1cccc(C[C@@](C)(C#N)c2ccc3cc(CC)c(=O)[nH]c3c2)c1` [Compound 3], the melting point came to 128 °C. Further, at TANK-2 enzyme, the IC50 was 0.501 µM. Further, the minimal effective concentration in the data set with PC3 cells is 0.01 µM.
As to `CCc1cc2ccc(C(C)(C#N)Cc3nc(C)cc(C)n3)cc2[nH]c1=O` (stereo not drawn) [Compound 368], at TANK-2 enzyme, the IC50 was 0.158 µM. In the data set with PC3 cells, the minimal effective concentration is 1 µM.
Regarding `CCc1cc2cc(OCCOC)c(C(C)(C#N)Cc3cccc(C#N)c3)cc2[nH]c1=O` (stereo not drawn) [Compound 182], the melting point amounted to 130 °C. The IC50 at TANK-2 enzyme was 0.0316 µM.
For `Cc1cc2ccc(C(C)(C#N)Cc3cccc(Cl)c3)cc2[nH]c1=O` (stereo not drawn) [Compound 37], the melting point is 242 °C. Besides, the IC50 on TANK-2 enzyme is 0.0794 µM. Also, in the data set on PC3 cells, the minimal effective concentration was 3.16 µM.
As for `Cc1cc2ccc([C@@](C)(C#N)Cc3cccc(C#N)c3)cc2[nH]c1=O` [Compound 35], the melting point was determined as 233 °C. Besides, the IC50 at TANK-2 enzyme is 0.316 µM.
For the molecule `CCc1cc2ccc(C(C)(C#N)Cc3cccc(CN)c3)cc2[nH]c1=O` (stereo not drawn) [Compound 290], the IC50 on TANK-2 enzyme is 0.316 µM. Also, in the data set with PC3 cells, the minimal effective concentration is 3.16 µM.
Take `CCc1cc2ccc(C(C)(C#N)Cc3nccc(OC)n3)cc2[nH]c1=O` (stereo not drawn) [Compound 360]: on TANK-2 enzyme, the IC50 is 0.126 µM. Also, in the data set on PC3 cells, the minimal effective concentration was 1 µM.
For `CCc1cc2ccc(C(C)(C#N)Cc3cc(Cl)nc(Cl)c3)cc2[nH]c1=O` (stereo not drawn) [Compound 372] the same measures were 0.126 µM and 1 µM.
